Assays:
[1] = cited from earlier work
[2] = Dispersive surface energy by inverse gas chromatography (IGC); format: physicochemical; details: IGC at 25° C., 0% RH, FIG. 1
Description: The surface energies were measured by inverse gas chromatography (IGC). All analyses were carried out using the SMS-iGC 2000 and the SMS-iGC v1.3 standard analysis suite and SMS-iGC v1.21 advanced analysis suite of macros. A flame ionization detector (FID) was used to determine the retention times. The samples were stored in a cold (˜5° C.), dry environment until run on the IGC. For all experiments, the powders were packed into a silanized glass column (300 mm long by 4 mm diameter) using the SMS Column Packing Accessory. All columns were analyzed 3 times sequentially to check for irreversible chemisorption effects and equilibrium after preconditioning.
In this study, the columns were pre-treated for 2 hours at 25° C. and 0% RH in a helium carrier gas to condition the sample. Then, the surface energy measurements were performed at 25° C. (3 times sequentially with a 2-hour conditioning between runs). All experiments were carried out at 10 sccm total flow rate of helium, and injection vapor concentration of 0.03 P/0 for all elutants.

Compound | dispersive surface energy, values reported in the literature [1] | dispersive surface energy [2]
O.OC[C@H]1O[C@@H](O[C@H]2[C@H](O)[C@@H](O)[C@@H](O)O[C@@H]2CO)[C@H](O)[C@@H](O)[C@H]1O [Meggle D30 reference, α-lactose monohydrate] | 41 mJm^−2 | 41.8 mJm^−2
magnesium stearate | 41 mJm^−2 | 42.1 mJm^−2

Reference: US20190216731A1, “PROCESS FOR PROVIDING PARTICLES WITH REDUCED ELECTROSTATIC CHARGES” (Chiesi Farmaceutici S.p.A., priority 2010, published 2019)
